Data reported in patent US9487462B2, “Inhibitors of matrix metalloproteinases” (PharmaHungary 2000 Kft., priority 2010, dated 2016).
“Also recorded” adds a separate entry of the source. Like-named read-outs stand apart in the source and are kept apart here.

Experiments:
[1] = test system: isolated rat hearts; experiment: Myocardial ischemia/reperfusion injury in isolated rat hearts (Langendorff), infarct size; format: ex vivo
Experimental: Male Wistar rats were anesthetized with diethyl ether, heparin (500 U/kg i.v.) was administered and hearts were isolated. The hearts were assigned to three groups: (i) DMSO control and (ii) Compound 1 (1 μM) and (iii) Compound 1 (10 μM) treated. Stock solution of inhibitors was prepared in DMSO. The final DMSO concentration in all assays was 0.1%. Hearts were perfused in Langendorff mode with constant pressure (100 H2O cm) for 20 min at 37° C. then exposed to global ischemia for 30 min followed by 120 min of reperfusion. The DMSO and inhibitors were dissolved in Krebs-Henseleit buffer and administered only before onset of ischemia for 20 min (pretreatment) and during the first 30 min of reperfusion (FIG. 6). At the end of reperfusion, infarct size (IS) was defined by triphenyltetrazolium chloride staining (Csonka et al., 2010).
In separate experiments hearts were perfused to test cardioprotective effect of ALBH-know compound at 5 μM final concentration. The same protocol was used as mentioned above.

[2] = Cytotoxicity, alamarBlue viability, HCT116; format: cell-based; conditions: human, HCT116 colon tumor cells, 48 hours incubation, read-out: HCT116 LC50
Method in brief: (§1)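 Cells exposed to compound dilutions for 48 hours, then alamarBlue added for 4 hours; fluorescence read at ex 540/em 590 nm. IC50 from six concentrations run in duplicate.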

[3] = target: MMP9 (Homo sapiens, UniProt P14780); experiment: MMP activity assay (fluorogenic substrate), MMP9 catalytic domain; format: biochemical; conditions: Table 2
[4] = target: MMP-9 (Rattus norvegicus (Rat), UniProt P50282); experiment: In vitro zymography assay (gelatin), MMP-9; format: biochemical; conditions: % ± SD
MMP-9, sequence (P50282 108-708): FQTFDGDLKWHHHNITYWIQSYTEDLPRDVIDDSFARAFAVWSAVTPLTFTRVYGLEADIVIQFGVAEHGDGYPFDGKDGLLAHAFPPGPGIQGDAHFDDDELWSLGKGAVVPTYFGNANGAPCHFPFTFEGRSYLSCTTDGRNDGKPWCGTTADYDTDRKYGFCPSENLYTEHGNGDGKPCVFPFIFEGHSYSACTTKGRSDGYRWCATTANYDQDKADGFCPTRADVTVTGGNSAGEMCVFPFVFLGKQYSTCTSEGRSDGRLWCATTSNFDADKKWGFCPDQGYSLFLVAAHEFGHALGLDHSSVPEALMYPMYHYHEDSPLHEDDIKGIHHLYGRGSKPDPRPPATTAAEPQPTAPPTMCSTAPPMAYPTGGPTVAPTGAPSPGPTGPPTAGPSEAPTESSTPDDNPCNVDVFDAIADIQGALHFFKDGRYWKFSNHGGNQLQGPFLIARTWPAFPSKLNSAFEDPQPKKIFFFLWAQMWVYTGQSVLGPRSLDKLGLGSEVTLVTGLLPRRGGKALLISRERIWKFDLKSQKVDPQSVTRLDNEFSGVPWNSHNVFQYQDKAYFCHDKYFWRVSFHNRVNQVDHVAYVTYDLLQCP
Experimental: (§2) MMP-2 and MMP-9 enzymes were isolated from rat hearts and from rat spleen while human, recombinant MMP-1 and MMP-13 enzymes used were commercial. MMP-2, -9, -13 enzymes were separated by electrophoresis during non-reducing conditions on 8% SDS-polyacrylamide gels copolymerized with 2 mg/ml gelatin from porcine skin (Sigma Aldrich) while MMP-1 was separated under the same conditions on 8% SDS-polyacrylamide gels copolymerized with 2 mg/ml casein (Sigma Aldrich). […] In case of MMP-13 p-aminophenylmercuric acetate (APMA) was used for enzyme activation at 37° C. for 30 min. After electrophoresis, gels were washed in 2.5% Triton-X 100 with agitation and then incubated for 20 hrs at 37° C. in enzyme incubation buffer (50 mM Tris-HCl, pH 7.5, containing 5 mM CaCl2, 200 mM NaCl) with or without MMP inhibitor. Zymographic gels were stained in Coomassie Brilliant Blue R-250 and de-stained. Gelatin and casein zymograms were scanned. MMP activity is detected as a white zone on a blue background and the clear bands in the gel can be quantified by densitometry. The obtained density values were measured and % inhibition values calculated (Kupai et al., 2010). The table below summarizes the prescreen inhibition values determined for different MMP inhibitors on MMP1, -2, -9, -13.

[5] = Cytotoxicity, alamarBlue viability, MRC-5; format: cell-based; conditions: human, MRC-5 fibroblast cells, 48 hours incubation, read-out: MRC-5 LC50
Method in brief: as §1

[6] = target: MMP2 (Homo sapiens, UniProt P08253); experiment: MMP activity assay (fluorogenic substrate), MMP2 catalytic domain; format: biochemical
[7] = target: MMP1 (Homo sapiens (Human), UniProt P03956); experiment: In vitro zymography assay (casein), MMP-1; format: biochemical; conditions: % ± SD
MMP1, sequence (P03956 100-469): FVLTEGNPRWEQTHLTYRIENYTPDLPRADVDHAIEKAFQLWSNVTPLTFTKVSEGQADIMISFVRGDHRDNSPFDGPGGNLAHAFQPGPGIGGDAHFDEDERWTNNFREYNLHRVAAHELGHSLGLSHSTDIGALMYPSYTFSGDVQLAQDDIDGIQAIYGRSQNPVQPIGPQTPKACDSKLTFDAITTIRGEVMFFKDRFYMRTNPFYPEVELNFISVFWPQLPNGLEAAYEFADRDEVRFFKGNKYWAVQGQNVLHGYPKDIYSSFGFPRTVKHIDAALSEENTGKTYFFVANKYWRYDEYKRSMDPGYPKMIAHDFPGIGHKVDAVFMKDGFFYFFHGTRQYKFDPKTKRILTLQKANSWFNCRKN
Experimental: as §2

[8] = read-out: % inhibition MMP-1 (52 kDa)
[9] = read-out: % inhibition MMP-1 (55 kDa)

- IC50 [3]: 37 µM
- % inhibition MMP-9 (92 kDa) ([4]; 1 μM): No inhibition
- % inhibition MMP-9 (92 kDa) ([4]; 100 μM): No inhibition
- IC50 ([6]; Table 2, read-out: MMP2 IC50): 5.7 µM
- IC50 ([6]; read-out: IC50 on MMP2): 5.7 µM
- inhibition at 1 µM [7, 8]: 25.9 ± 9.51%
- inhibition at 1 µM [7, 9]: 29.2 ± 38.7%
- inhibition at 100 µM [7, 8]: 58 ± 12.6%
- inhibition at 100 µM [7, 9]: 95.3 ± 8.17%
Structure (SMILES): O=C(O)c1csc(CN(Cc2ccc(F)cc2)Cc2ccc(OCc3cccnc3)cc2)n1 [Compound 1, 2-({[(4-Fluorophenyl)methyl]({[4-(pyridin-3-ylmethoxy)phenyl]methyl})amino}methyl)-1,3-thiazole-4-carboxylic acid]
- myocardial IS (infarct size) ([1]; 1 μM and 10 μM, administered before ischemia and during reperfusion, result in words): reduced myocardial IS; also recorded: decreased infarct size significantly
- Infarct size as compared with DMSO control ([1]; 10 μM, isolated rat hearts, 30 min global ischemia, 120 min reperfusion, p<0.05): significantly decreased infarct size
- CC50 at 48 h [2]: 11 µM
- CC50 at 48 h [5]: 25 µM
